Values quoted from earlier work, collected in US20250339484A1, “COMPOSITION FOR BODY FAT REDUCTION CONTAINING EXTRACTS OF TARAXACUM PLATYCARPUM AND LONICERAE JAPONICA AS ACTIVE INGREDIENTS” (BOINBIO-CONVERGENCE CO., LTD., priority 2022, published 2025).

Conditions: clinical trials, about 3 g per day, after 3 months

CCCC/C=C/C=C/C=C\CCCCCCCC(=O)O [CLA, conjugated linolenic acid]
body weight reduction (average): 2.5 kg
